Converted amounts (≈) assume the structure as drawn.
Assays:
[1] = test system: Acinetobacter baumannii; assay: Antimicrobial activity against Acinetobacter baumannii isolate J expressing beta-lactamase OXA-58 isolated from bedsore by Etest
[2] = test system: Acinetobacter baumannii; assay: Antimicrobial activity against Acinetobacter baumannii isolate F expressing beta-lactamase OXA-164 isolated from tracheostoma of patient by Etest
[3] = test system: Acinetobacter baumannii; assay: Antimicrobial activity against Acinetobacter baumannii isolate K expressing beta-lactamase OXA-58 isolated from blood culture of patient by Etest
[4] = test system: Acinetobacter baumannii; assay: Antimicrobial activity against Acinetobacter baumannii isolate G expressing beta-lactamase OXA-58 isolated from tracheal secretion of patient by Etest
[5] = test system: Acinetobacter baumannii; assay: Antimicrobial activity against Acinetobacter baumannii isolate H expressing beta-lactamase OXA-58 isolated from tracheal secretion of patient by Etest
[6] = test system: Acinetobacter baumannii; assay: Antimicrobial activity against Acinetobacter baumannii isolate I expressing beta-lactamase OXA-58 isolated from tracheal secretion of patient by Etest
[7] = test system: Acinetobacter baumannii; assay: Antimicrobial activity against Acinetobacter baumannii isolate L expressing beta-lactamase OXA-58 isolated from tracheal secretion of patient by Etest
[8] = test system: Acinetobacter baumannii; assay: Antimicrobial activity against Acinetobacter baumannii isolate M expressing beta-lactamase OXA-58 isolated from tracheal secretion of patient by Etest
[9] = test system: Acinetobacter baumannii; assay: Antimicrobial activity against Acinetobacter baumannii isolate A expressing beta-lactamase OXA-164 isolated from tracheal secretion of patient by Etest
[10] = test system: Acinetobacter baumannii; assay: Antimicrobial activity against Acinetobacter baumannii isolate B expressing beta-lactamase OXA-164 isolated from tracheal secretion of patient by Etest
[11] = test system: Acinetobacter baumannii; assay: Antimicrobial activity against Acinetobacter baumannii isolate C expressing beta-lactamase OXA-164 isolated from tracheal secretion of patient by Etest
[12] = test system: Acinetobacter baumannii; assay: Antimicrobial activity against Acinetobacter baumannii isolate D expressing beta-lactamase OXA-164 isolated from tracheal secretion of patient by Etest
[13] = test system: Acinetobacter baumannii; assay: Antimicrobial activity against Acinetobacter baumannii isolate E expressing beta-lactamase OXA-164 isolated from tracheal secretion of patient by Etest
[14] = test system: Escherichia coli; assay: Antimicrobial activity against Escherichia coli NEB 5-alpha harboring plasmid WH1266 by Etest; format: functional
[15] = test system: Escherichia coli; assay: Antimicrobial activity against Escherichia coli NEB 5-alpha harboring beta-lactamase OXA-164 by Etest; format: functional
[16] = test system: Escherichia coli; assay: Antimicrobial activity against Escherichia coli NEB 5-alpha harboring beta-lactamase OXA-58 by Etest; format: functional
[17] = test system: Acinetobacter baumannii; assay: Antimicrobial activity against Acinetobacter baumannii ATCC 19606 harboring plasmid WH1266 by Etest; format: functional; conditions: ATCC 19606 = CIP 70.34 = JCM 6841
[18] = test system: Acinetobacter baumannii; assay: Antimicrobial activity against Acinetobacter baumannii ATCC 19606 harboring beta-lactamase OXA-164 by Etest; format: functional; conditions: ATCC 19606 = CIP 70.34 = JCM 6841
[19] = test system: Acinetobacter baumannii; assay: Antimicrobial activity against Acinetobacter baumannii ATCC 19606 harboring beta-lactamase OXA-58 by Etest; format: functional; conditions: ATCC 19606 = CIP 70.34 = JCM 6841
[20] = test system: Acinetobacter baumannii; assay: Antimicrobial activity against Acinetobacter baumannii ATCC 17978 harboring plasmid WH1266 by Etest; format: functional
[21] = test system: Acinetobacter baumannii; assay: Antimicrobial activity against Acinetobacter baumannii ATCC 17978 harboring beta-lactamase OXA-164 by Etest; format: functional
[22] = test system: Acinetobacter baumannii; assay: Antimicrobial activity against Acinetobacter baumannii ATCC 17978 harboring beta-lactamase OXA-58 by Etest; format: functional
[23] = test system: Acinetobacter baumannii; assay: Antimicrobial activity against Acinetobacter baumannii isolate J expressing beta-lactamase OXA-58 isolated from bedsore by vitek 2 system
[24] = test system: Acinetobacter baumannii; assay: Antimicrobial activity against Acinetobacter baumannii isolate F expressing beta-lactamase OXA-164 isolated from tracheostoma of patient by vitek 2 system
[25] = test system: Acinetobacter baumannii; assay: Antimicrobial activity against Acinetobacter baumannii isolate K expressing beta-lactamase OXA-58 isolated from blood culture of patient by vitek 2 system
[26] = test system: Acinetobacter baumannii; assay: Antimicrobial activity against Acinetobacter baumannii isolate G expressing beta-lactamase OXA-58 isolated from tracheal secretion of patient by vitek 2 system
[27] = test system: Acinetobacter baumannii; assay: Antimicrobial activity against Acinetobacter baumannii isolate H expressing beta-lactamase OXA-58 isolated from tracheal secretion of patient by vitek 2 system
[28] = test system: Acinetobacter baumannii; assay: Antimicrobial activity against Acinetobacter baumannii isolate I expressing beta-lactamase OXA-58 isolated from tracheal secretion of patient by vitek 2 system
[29] = test system: Acinetobacter baumannii; assay: Antimicrobial activity against Acinetobacter baumannii isolate L expressing beta-lactamase OXA-58 isolated from tracheal secretion of patient by vitek 2 system
[30] = test system: Acinetobacter baumannii; assay: Antimicrobial activity against Acinetobacter baumannii isolate M expressing beta-lactamase OXA-58 isolated from tracheal secretion of patient by vitek 2 system
[31] = test system: Acinetobacter baumannii; assay: Antimicrobial activity against Acinetobacter baumannii isolate A expressing beta-lactamase OXA-164 isolated from tracheal secretion of patient by vitek 2 system
[32] = test system: Acinetobacter baumannii; assay: Antimicrobial activity against Acinetobacter baumannii isolate B expressing beta-lactamase OXA-164 isolated from tracheal secretion of patient by vitek 2 system
[33] = test system: Acinetobacter baumannii; assay: Antimicrobial activity against Acinetobacter baumannii isolate C expressing beta-lactamase OXA-164 isolated from tracheal secretion of patient by vitek 2 system
[34] = test system: Acinetobacter baumannii; assay: Antimicrobial activity against Acinetobacter baumannii isolate D expressing beta-lactamase OXA-164 isolated from tracheal secretion of patient by vitek 2 system
[35] = test system: Acinetobacter baumannii; assay: Antimicrobial activity against Acinetobacter baumannii isolate E expressing beta-lactamase OXA-164 isolated from tracheal secretion of patient by vitek 2 system

Row | SMILES | MIC [1] [µg/mL] | MIC [2] [µg/mL] | MIC [3] [µg/mL] | MIC [4] [µg/mL] | MIC [5] [µg/mL] | MIC [6] [µg/mL] | MIC [7] [µg/mL] | MIC [8] [µg/mL] | MIC [9] [µg/mL] | MIC [10] [µg/mL] | MIC [11] [µg/mL] | MIC [12] [µg/mL] | MIC [13] [µg/mL] | MIC [23] [µg/mL] | MIC [24] [µg/mL] | MIC [25] [µg/mL] | MIC [26] [µg/mL] | MIC [27] [µg/mL] | MIC [28] [µg/mL] | MIC [29] [µg/mL] | also measured
1 | C[C@H]1COc2c(N3CCN(C)CC3)c(F)cc3c(=O)c(C(=O)O)cn1c23.C[C@H]1COc2c(N3CCN(C)CC3)c(F)cc3c(=O)c(C(=O)O)cn1c23.O [LEVOFLOXACIN] | ≥ 64 | 8 | ≥ 64 | ≥ 64 | ≥ 64 | ≥ 64 | ≥ 64 | ≥ 64 | 8 | 8 | 8 | 8 | 16 | – | – | – | – | – | – | – | –
2 | C[C@@H](O)[C@H]1C(=O)N2C(C(=O)O)=C(S[C@@H]3CN[C@H](C(=O)N(C)C)C3)[C@H](C)[C@H]12 [MEROPENEM] | ≥ 64 | 16 (≈ 41.7 µM) | ≥ 64 | ≥ 64 | ≥ 64 | ≥ 64 | ≥ 64 | ≥ 64 | 32 (≈ 83.4 µM) | 32 (≈ 83.4 µM) | 8 (≈ 20.9 µM) | 32 (≈ 83.4 µM) | 32 (≈ 83.4 µM) | 8 (≈ 20.9 µM) | 4 (≈ 10.4 µM) | 8 (≈ 20.9 µM) | ≥ 16 | 8 (≈ 20.9 µM) | 8 (≈ 20.9 µM) | ≥ 16 | MIC [14]: 0.012 µg/mL (≈ 0.0313 µM); MIC [15]: 0.032 µg/mL (≈ 0.0834 µM); MIC [16]: 0.032 µg/mL (≈ 0.0834 µM); MIC [17]: 0.19 µg/mL (≈ 0.495 µM); MIC [18]: 32 µg/mL (≈ 83.4 µM); MIC [19]: > 32 µg/mL; MIC [20]: 0.25 µg/mL (≈ 0.652 µM); MIC [21]: > 32 µg/mL; MIC [22]: > 32 µg/mL; MIC [30]: 8 µg/mL (≈ 20.9 µM); MIC [31]: 2 µg/mL (≈ 5.22 µM); MIC [32]: 4 µg/mL (≈ 10.4 µM); MIC [33]: 8 µg/mL (≈ 20.9 µM); MIC [34]: 8 µg/mL (≈ 20.9 µM); MIC [35]: 8 µg/mL (≈ 20.9 µM)
3 | CN(C)c1cc(NC(=O)CNC(C)(C)C)c(O)c2c1C[C@H]1C[C@H]3[C@H](N(C)C)C(O)=C(C(N)=O)C(=O)[C@@]3(O)C(O)=C1C2=O [TIGECYCLINE] | 16 (≈ 27.3 µM) | 4 (≈ 6.83 µM) | 16 (≈ 27.3 µM) | 16 (≈ 27.3 µM) | 16 (≈ 27.3 µM) | 16 (≈ 27.3 µM) | 16 (≈ 27.3 µM) | 16 (≈ 27.3 µM) | 4 (≈ 6.83 µM) | 4 (≈ 6.83 µM) | 4 (≈ 6.83 µM) | 4 (≈ 6.83 µM) | 4 (≈ 6.83 µM) | ≥ 8 | 2 (≈ 3.41 µM) | ≥ 8 | ≥ 8 | ≥ 8 | ≥ 8 | ≥ 8 | MIC [30]: ≥ 8 µg/mL; MIC [31]: 2 µg/mL (≈ 3.41 µM); MIC [32]: 2 µg/mL (≈ 3.41 µM); MIC [33]: 2 µg/mL (≈ 3.41 µM); MIC [34]: 2 µg/mL (≈ 3.41 µM); MIC [35]: 2 µg/mL (≈ 3.41 µM)
4 | NC[C@H]1O[C@H](O[C@H]2[C@H](O)[C@@H](O[C@H]3O[C@H](CO)[C@@H](O)[C@H](N)[C@H]3O)[C@H](N)C[C@@H]2N)[C@H](N)C[C@@H]1O [TOBRAMYCIN] | 16 (≈ 34.2 µM) | 2 (≈ 4.28 µM) | 16 (≈ 34.2 µM) | 4 (≈ 8.56 µM) | 4 (≈ 8.56 µM) | 4 (≈ 8.56 µM) | 4 (≈ 8.56 µM) | 4 (≈ 8.56 µM) | 2 (≈ 4.28 µM) | 4 (≈ 8.56 µM) | 2 (≈ 4.28 µM) | 2 (≈ 4.28 µM) | 2 (≈ 4.28 µM) | 8 (≈ 17.1 µM) | ≤ 1 | 8 (≈ 17.1 µM) | ≤ 1 | ≤ 1 | ≤ 1 | ≤ 1 | MIC [30]: ≤ 1 µg/mL; MIC [31]: ≤ 1 µg/mL; MIC [32]: ≤ 1 µg/mL; MIC [33]: ≤ 1 µg/mL; MIC [34]: ≤ 1 µg/mL; MIC [35]: ≤ 1 µg/mL

— ChEMBL document CHEMBL1687815, “In vivo selection of a missense mutation in adeR and conversion of the novel blaOXA-164 gene into blaOXA-58 in carbapenem-resistant Acinetobacter baumannii isolates from a hospitalized patient” (2010)
